Read-outs that look alike come from different tables or passages of the source.
Test: Pharmacokinetic evaluation following a single oral and intravenous administration
Format: in vivo, CD1 mouse
Settings: CD1, mouse, plasma; for C0 / AUC(0-inf) / AUC(0-t) / MRT inf / half-life / Vd: Table 10, IV Dose: 1 mg/kg
Protocol: A NMP stock solution was prepared by adding 1.136 mL of NMP to 5.68 mg of compound no. 42140 with vortexing and sonification, to obtain a solution with a concentration at 5 mg/mL of 42140:01. Next, to prepare an intravenous formulation, 0.100 mL of the 5 mg/mL stock solution was placed in a new vial. 0.100 mL of NMP and 0.400 mL of PEG400 were added with vortexing and sonification, followed by addition of 0.400 mL of saline with vortexing and sonification. […] 42140:01. Alternatively, to prepare an oral formulation, 0.200 mL of the 5 mg/mL stock solution was placed in a new vial. 0.400 mL of PEG400 was added with vortexing and sonification, followed by addition of 0.400 mL of saline with vortexing and sonifiction. […] 42140:01.
(§1) Briefly, the desired serial concentrations of working solutions were achieved by diluting a stock solution of the compound with 100% acetonitrile. 3 μL of working solutions (5, 10, 20, 50, 100, 500, 1000, 5000, 10000 ng/mL) were added to 30 μL of the blank CD1 mouse plasma to achieve calibration standards of 0.5-1000 ng/mL (0.5, 1, 2, 5, 10, 50, 100, 500, 1000 ng/mL) in a total volume of 33 μL. Five quality control samples at 1 ng/mL, 2 ng/mL, 5 ng/mL, 50 ng/mL and 800 ng/mL for plasma were prepared independently of those used for the calibration curves. These QC samples were prepared on the day of analysis in the same way as calibration standards.
Next, 33 μL standards, 33 μL QC samples, and 33 μL unknown samples (30 μL plasma with 3 μL blank solution) were added to 200 μL of acetonitrile containing IS mixture for precipitating protein, respectively. Then the samples were vortexed for 30 s. After centrifugation at 4 degree Celsius, 4000 rpm for 15 min, 3 μL of supernatant was injected into the LC/MS/MS system for quantitative analysis.
HPLC analysis was performed using 100% water with 0.1% formic acid (Solution A) and 100% acetonitrile with 0.1% formic acid (Solution B) with a flow rate of 0.6 mL/min.
A NMP stock solution was prepared by adding 2.092 mL of NMP to 10.46 mg of […] with vortexing and sonification, to obtain a solution with a concentration at 5 mg/mL of […]. Next, to prepare an intravenous formulation, 0.100 mL of the 5 mg/mL stock solution was placed in a new vial. 0.100 mL of NMP and 0.400 mL of PEG400 were added with vortexing and sonification, followed by addition of 0.400 mL of saline with vortexing and sonification. […] 42320:01. Alternatively, to prepare an oral formulation, 0.200 mL of the 5 mg/mL stock solution was placed in a new vial. 0.400 mL of PEG400 was added with vortexing and sonification, followed by addition of 0.400 mL of saline with vortexing and sonifiction. […] 42320:01.
as §1, with “50 ng/mL,” for “50 ng/mL”

[1] = iv, 1 mg/kg, Table 9, IV Dose: 1 mg/kg, Mouse 1, read-out: Concentration
[2] = iv, 1 mg/kg, Table 9, IV Dose: 1 mg/kg, Mouse 2, read-out: Concentration
[3] = iv, 1 mg/kg, Table 9, IV Dose: 1 mg/kg, Mouse 3, read-out: Concentration
[4] = iv, 1 mg/kg, Table 9, IV Dose: 1 mg/kg, mean, read-out: Concentration, Mean
[5] = po, 5 mg/kg, Table 11, PO Dose: 5 mg/kg, Mouse 4, read-out: Concentration
[6] = po, 5 mg/kg, Table 11, PO Dose: 5 mg/kg, Mouse 5, read-out: Concentration
[7] = po, 5 mg/kg, Table 11, PO Dose: 5 mg/kg, Mouse 6, read-out: Concentration
[8] = po, 5 mg/kg, Table 11, PO Dose: 5 mg/kg, mean, read-out: Concentration, Mean

SMILES: CC(=O)N[C@@H](Cc1ccc(CN(C)C)cc1)c1nnc(-c2cccc(OC(F)(F)F)c2)s1 [Compound 42320, N-(2-(4-((dimethylamino)methyl)phenyl)-1-(5-(3-(trifluoromethoxy)phenyl)-1,3,4-thiadiazol-2-yl)ethyl)acetamide]
- concentration at 5 min [1]: 86.9 ng/mL
- concentration at 5 min [2]: 90.3 ng/mL
- concentration at 5 min [3]: 85.7 ng/mL
- concentration at 5 min [4]: 87.6 ng/mL
- concentration at 0.25 h [1]: 68.4 ng/mL
- concentration at 0.25 h [2]: 65 ng/mL
- concentration at 0.25 h [3]: 68.3 ng/mL
- concentration at 0.25 h [4]: 67.2 ng/mL
- concentration at 0.5 h [1]: 68 ng/mL
- concentration at 0.5 h [2]: 59.2 ng/mL
- concentration at 0.5 h [3]: 52.7 ng/mL
- concentration at 0.5 h [4]: 60 ng/mL
- concentration at 1 h [1]: 41.2 ng/mL
- concentration at 1 h [2]: 39.4 ng/mL
- concentration at 1 h [3]: 47.1 ng/mL
- concentration at 1 h [4]: 42.6 ng/mL
- concentration at 2 h [1]: 26.5 ng/mL
- concentration at 2 h [2]: 23.9 ng/mL
- concentration at 2 h [3]: 25.9 ng/mL
- concentration at 2 h [4]: 25.4 ng/mL
- concentration at 4 h [1]: 11.9 ng/mL
- concentration at 4 h [2]: 9.71 ng/mL
- concentration at 4 h [3]: 13 ng/mL
- concentration at 4 h [4]: 11.5 ng/mL
- concentration at 8 h [1]: 4.08 ng/mL
- concentration at 8 h [2]: 3.66 ng/mL
- concentration at 8 h [3]: 5.31 ng/mL
- concentration at 8 h [4]: 4.35 ng/mL
- C0 (iv, 1 mg/kg, Mouse 1): 97.9 ng/mL
- AUC(0-inf) (iv, 1 mg/kg, Mouse 1, read-out: AUCInf): 183 ng·h/mL
- AUC(0-t) (iv, 1 mg/kg, Mouse 1, read-out: AUClast): 169 ng·h/mL
- MRT inf (iv, 1 mg/kg, Mouse 1, read-out: MRTInf—obs): 2.66 h
- half-life (iv, 1 mg/kg, Mouse 1, read-out: T1/2 (converted)): 2.27 h
- Vd (iv, 1 mg/kg, Mouse 1, read-out: Vss—obs): 14.6 L/kg
- C0 (iv, 1 mg/kg, Mouse 2): 106 ng/mL
- AUC(0-inf) (iv, 1 mg/kg, Mouse 2, read-out: AUCInf): 165 ng·h/mL
- AUC(0-t) (iv, 1 mg/kg, Mouse 2, read-out: AUClast): 153 ng·h/mL
- MRT inf (iv, 1 mg/kg, Mouse 2, read-out: MRTInf—obs): 2.59 h
- half-life (iv, 1 mg/kg, Mouse 2, read-out: T1/2 (converted)): 2.29 h
- Vd (iv, 1 mg/kg, Mouse 2, read-out: Vss—obs): 15.7 L/kg
- C0 (iv, 1 mg/kg, Mouse 3): 96 ng/mL
- AUC(0-inf) (iv, 1 mg/kg, Mouse 3, read-out: AUCInf): 193 ng·h/mL
- AUC(0-t) (iv, 1 mg/kg, Mouse 3, read-out: AUClast): 172 ng·h/mL
- MRT inf (iv, 1 mg/kg, Mouse 3, read-out: MRTInf—obs): 3.17 h
- half-life (iv, 1 mg/kg, Mouse 3, read-out: T1/2 (converted)): 2.68 h
- Vd (iv, 1 mg/kg, Mouse 3, read-out: Vss—obs): 16.4 L/kg
- AUC(0-inf) (iv, 1 mg/kg, mean, read-out: AUCInf, Mean): 180 ng·h/mL
- AUC(0-t) (iv, 1 mg/kg, mean, read-out: AUClast, Mean): 165 ng·h/mL
- MRT inf (iv, 1 mg/kg, mean, read-out: MRTInf—obs, Mean): 2.81 h
- half-life (iv, 1 mg/kg, mean, read-out: T1/2, Mean (converted)): 2.41 h
- Vd (iv, 1 mg/kg, mean, read-out: Vss—obs, Mean): 15.6 L/kg
- concentration at 0.25 h [5]: 100 ng/mL
- concentration at 0.25 h [6]: 71.4 ng/mL
- concentration at 0.25 h [7]: 78.6 ng/mL
- concentration at 0.25 h [8]: 83 ng/mL
- concentration at 0.5 h [5]: 201 ng/mL
- concentration at 0.5 h [6]: 121 ng/mL
- concentration at 0.5 h [7]: 122 ng/mL
- concentration at 0.5 h [8]: 148 ng/mL
- concentration at 1 h [5]: 193 ng/mL
- concentration at 1 h [6]: 119 ng/mL
- concentration at 1 h [7]: 112 ng/mL
- concentration at 1 h [8]: 141 ng/mL

Source: patent US11033535B2, “Oxadiazoles and thiadiazoles as TGF-β inhibitors” (Southern Research Institute, priority 2017, dated 2021)
